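Five compound concentrations were applied to cells in 96-well plates for 48 hours; endpoints were derived by simple linear interpolation of the resulting dose-response curve. Here, GI50 denotes the concentration required for 50% inhibition of growth. Definition used: TGI = concentration required for complete inhibition of growth.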
Legend:
Experiment in all cases: NCI tumour cell line growth inhibition, 48 h
SK-MEL-28 melanoma = tested on: SK-MEL-28 melanoma
K-562 leukemia = tested on: K-562 leukemia
SNB-75 CNS = tested on: SNB-75 CNS
KM12 colon = tested on: KM12 colon
SK-MEL-5 melanoma = tested on: SK-MEL-5 melanoma
SNB-19 CNS = tested on: SNB-19 CNS
NCI-H522 lung = tested on: NCI-H522 lung
HCT-116 colon = tested on: HCT-116 colon
HOP-62 NSCLC = tested on: HOP-62 NSCLC
HCT-15 colon = tested on: HCT-15 colon
OVCAR-8 ovarian = tested on: OVCAR-8 ovarian
HOP-92 NSCLC = tested on: HOP-92 NSCLC
MOLT-4 leukemia = tested on: MOLT-4 leukemia
A549 NSCLC = tested on: A549 NSCLC
M14 melanoma = tested on: M14 melanoma
RPMI-8226 leukemia = tested on: RPMI-8226 leukemia
SN12C renal = tested on: SN12C renal
NCI-H226 lung = tested on: NCI-H226 lung
UACC-257 melanoma = tested on: UACC-257 melanoma
CAKI-1 renal = tested on: CAKI-1 renal
LOX IMVI melanoma = tested on: LOX IMVI melanoma
SF-539 CNS = tested on: SF-539 CNS
SW-620 colon = tested on: SW-620 colon
HT29 colon = tested on: HT29 colon
DU-145 prostate = tested on: DU-145 prostate
HL-60(TB) leukemia = tested on: HL-60(TB) leukemia
NCI-H460 lung = tested on: NCI-H460 lung
NCI/ADR-RES ovarian = tested on: NCI/ADR-RES ovarian
MDA-MB-435 = tested on: MDA-MB-435
MCF7 breast = tested on: MCF7 breast
MALME-3M melanoma = tested on: MALME-3M melanoma
SF-295 CNS = tested on: SF-295 CNS
U251 CNS = tested on: U251 CNS
PC-3 prostate = tested on: PC-3 prostate
A498 renal = tested on: A498 renal
T-47D breast = tested on: T-47D breast
TK-10 renal = tested on: TK-10 renal
OVCAR-4 ovarian = tested on: OVCAR-4 ovarian
SK-OV-3 ovarian = tested on: SK-OV-3 ovarian
SF-268 CNS = tested on: SF-268 CNS
786-0 renal = tested on: 786-0 renal
RXF 393 renal = tested on: RXF 393 renal
HS 578T breast = tested on: HS 578T breast
ACHN renal = tested on: ACHN renal
UO-31 renal = tested on: UO-31 renal
OVCAR-5 ovarian = tested on: OVCAR-5 ovarian
EKVX NSCLC = tested on: EKVX NSCLC
MDA-MB-231 breast = tested on: MDA-MB-231 breast
COLO 205 colon = tested on: COLO 205 colon
HCC-2998 colon = tested on: HCC-2998 colon
OVCAR-3 ovarian = tested on: OVCAR-3 ovarian
SK-MEL-2 melanoma = tested on: SK-MEL-2 melanoma
IGROV1 ovarian = tested on: IGROV1 ovarian
NCI-H23 lung = tested on: NCI-H23 lung
UACC-62 melanoma = tested on: UACC-62 melanoma

**Q.** What does the source list for `O=c1c2[nH]ccc2nc2n1CCS2`?
**A.** GI50 (SK-MEL-28 melanoma): > 100 µM; TGI (SK-MEL-28 melanoma): > 100 µM; GI50 (K-562 leukemia): > 100 µM; TGI (K-562 leukemia): > 100 µM; GI50 (SNB-75 CNS): 33.6 µM; TGI (SNB-75 CNS): > 100 µM; GI50 (KM12 colon): > 100 µM; TGI (KM12 colon): > 100 µM; GI50 (SK-MEL-5 melanoma): 0.324 µM; TGI (SK-MEL-5 melanoma): 0.913 µM; GI50 (SNB-19 CNS): > 100 µM; TGI (SNB-19 CNS): > 100 µM; GI50 (NCI-H522 lung): > 100 µM; TGI (NCI-H522 lung): > 100 µM; GI50 (HCT-116 colon): > 100 µM; TGI (HCT-116 colon): > 100 µM; GI50 (HOP-62 NSCLC): > 100 µM; TGI (HOP-62 NSCLC): > 100 µM; GI50 (HCT-15 colon): > 100 µM; TGI (HCT-15 colon): > 100 µM; GI50 (OVCAR-8 ovarian): > 100 µM; TGI (OVCAR-8 ovarian): > 100 µM; GI50 (HOP-92 NSCLC): > 100 µM; TGI (HOP-92 NSCLC): > 100 µM; GI50 (MOLT-4 leukemia): > 100 µM; TGI (MOLT-4 leukemia): > 100 µM; GI50 (A549 NSCLC): > 100 µM; TGI (A549 NSCLC): > 100 µM; GI50 (M14 melanoma): > 100 µM; TGI (M14 melanoma): > 100 µM; GI50 (RPMI-8226 leukemia): > 100 µM; TGI (RPMI-8226 leukemia): > 100 µM; GI50 (SN12C renal): > 100 µM; TGI (SN12C renal): > 100 µM; GI50 (NCI-H226 lung): > 100 µM; TGI (NCI-H226 lung): > 100 µM; GI50 (UACC-257 melanoma): > 100 µM; TGI (UACC-257 melanoma): > 100 µM; GI50 (CAKI-1 renal): > 100 µM; TGI (CAKI-1 renal): > 100 µM; GI50 (LOX IMVI melanoma): > 100 µM; TGI (LOX IMVI melanoma): > 100 µM; GI50 (SF-539 CNS): > 100 µM; TGI (SF-539 CNS): > 100 µM; GI50 (SW-620 colon): > 100 µM; TGI (SW-620 colon): > 100 µM; GI50 (HT29 colon): > 100 µM; TGI (HT29 colon): > 100 µM; GI50 (DU-145 prostate): > 100 µM; TGI (DU-145 prostate): > 100 µM; GI50 (HL-60(TB) leukemia): 46.6 µM; TGI (HL-60(TB) leukemia): > 100 µM; GI50 (NCI-H460 lung): > 100 µM; TGI (NCI-H460 lung): > 100 µM; GI50 (NCI/ADR-RES ovarian): > 100 µM; TGI (NCI/ADR-RES ovarian): > 100 µM; GI50 (MDA-MB-435): > 100 µM; TGI (MDA-MB-435): > 100 µM; GI50 (MCF7 breast): > 100 µM; TGI (MCF7 breast): > 100 µM; GI50 (MALME-3M melanoma): > 100 µM; TGI (MALME-3M melanoma): > 100 µM; GI50 (SF-295 CNS): > 100 µM; TGI (SF-295 CNS): > 100 µM; GI50 (U251 CNS): > 100 µM; TGI (U251 CNS): > 100 µM; GI50 (PC-3 prostate): > 100 µM; TGI (PC-3 prostate): > 100 µM; GI50 (A498 renal): > 100 µM; TGI (A498 renal): > 100 µM; GI50 (T-47D breast): > 100 µM; TGI (T-47D breast): > 100 µM; GI50 (TK-10 renal): > 100 µM; TGI (TK-10 renal): > 100 µM; GI50 (OVCAR-4 ovarian): > 100 µM; TGI (OVCAR-4 ovarian): > 100 µM; GI50 (SK-OV-3 ovarian): > 100 µM; TGI (SK-OV-3 ovarian): > 100 µM; GI50 (SF-268 CNS): > 100 µM; TGI (SF-268 CNS): > 100 µM; GI50 (786-0 renal): > 100 µM; TGI (786-0 renal): > 100 µM; GI50 (RXF 393 renal): > 100 µM; TGI (RXF 393 renal): > 100 µM; GI50 (HS 578T breast): > 100 µM; TGI (HS 578T breast): > 100 µM; GI50 (ACHN renal): > 100 µM; TGI (ACHN renal): > 100 µM; GI50 (UO-31 renal): > 100 µM; TGI (UO-31 renal): > 100 µM; GI50 (OVCAR-5 ovarian): > 100 µM; TGI (OVCAR-5 ovarian): > 100 µM; GI50 (EKVX NSCLC): > 100 µM; TGI (EKVX NSCLC): > 100 µM; GI50 (MDA-MB-231 breast): > 100 µM; TGI (MDA-MB-231 breast): > 100 µM; GI50 (COLO 205 colon): > 100 µM; TGI (COLO 205 colon): > 100 µM; GI50 (HCC-2998 colon): > 100 µM; TGI (HCC-2998 colon): > 100 µM; GI50 (OVCAR-3 ovarian): > 100 µM; TGI (OVCAR-3 ovarian): > 100 µM; GI50 (SK-MEL-2 melanoma): > 100 µM; TGI (SK-MEL-2 melanoma): > 100 µM; GI50 (IGROV1 ovarian): > 100 µM; TGI (IGROV1 ovarian): > 100 µM; GI50 (NCI-H23 lung): > 100 µM; TGI (NCI-H23 lung): > 100 µM; GI50 (UACC-62 melanoma): > 100 µM; TGI (UACC-62 melanoma): > 100 µM
